# Measured values: patent publication US20190060340A1, “NOVEL AMINOGLYCOSIDES AND USES THEREOF IN THE TREATMENT OF GENETIC DISORDERS” (Technion Research & Development Foundation Limited, priority 2007, published 2019)
# Columns and labels:
# [1] = test system: human cytoplasmic A site olygonucleotide model duplexes; assay: UV melting of A site oligonucleotide model duplexes; assay type: binding
# Text: FIG. 7 presents the UV melting profiles observed for the human cytoplasmic A site olygonucleotide model duplexes in the absence of any drug (“No Drug” curve in FIG. 7) and in complex with ribostamycin (“Ribostamycin” curve in FIG. 7), Compound 3 (“NB30” curve in FIG. 7) and Compound 37 (“NB54” curve in FIG. 7) complexes at a drug/duplex ratio of 5:1;
# [2] = test system: R3X nonsense mutation of the PCDH15 gene in COS-7 cells; assay: Ex vivo readthrough assay, p2luc-R3X dual luciferase reporter plasmid in COS-7 cells; assay type: cell-based, monkey
# Procedure: For the, suppression of nonsense mutations by novel compounds was tested ex vivo using a dual luciferase reporter plasmid ex vivo readthrough assay. To generate the p2luc plasmid harboring the R3X nonsense mutation of the PCDH15 gene, the following oligonucleotides: 5′-[…]-3′ (SEQ ID NO: 21) and 5′-[…]-3′ (SEQ ID NO: 22) were annealed to each other and inserted into to polylinker sequence of the p2luc vector. The reporter plasmid p2luc-R3X was transfected to cos-7 cells with Lipofectamine 2000 (Invitrogen) and addition of tested compounds was performed 5 hours post transfection. Luciferase activity was determined after 24 hours of incubation, using the Dual Luciferase Reporter Assay System (Promega) and stop codon readthrough was calculated as described previously.
# [3] = Cell toxicity of Compound 37; assay type: cell-based
# [4] = Acute toxicity in mice; assay type: in vivo
# [5] = test system: TGA stop codon; assay: Preliminary tests for in vitro readthrough activity of the TGA stop codon; assay type: biochemical
# [6] = available toxicity data on aminoglycosides; unit inferred; cited from earlier work
Structure (SMILES),affinity to the cytoplasmic A site versus Compound 3 [1],maximum suppression level of the R3X nonsense mutation [2] [%],cell toxicity in comparison to paromomycin and gentamicin [3],acute toxicity in mice in comparison to paromomycin and gentamicin [4],in vitro readthrough activity of the TGA stop codon vs Compound 3 and paromomycin [5],LD50 [6] [mg/kg]
NCC[C@H](O)C(=O)N[C@@H]1CC(N)[C@@H](O[C@H]2OC(CO)[C@@H](O)C(O)C2N)C(O[C@@H]2O[C@H](CN)C(O)C2O)C1O (stereo partly drawn) [Compound 37],greater affinity,5.25,significantly reduced,significantly reduced,significantly higher stop codon read-through activity,
"NC[C@@H]1O[C@H](O[C@H]2[C@@H](O)[C@H](O[C@@H]3[C@@H](O)[C@H](N)C[C@H](N)[C@H]3O[C@H]3O[C@H](CO)[C@@H](O)[C@H](O)[C@H]3N)O[C@@H]2CO)[C@H](N)[C@@H](O)[C@@H]1O [paromomycin, reference compound]",,,,,,160
